According to PubChem BioAssay (NCI):
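Grown in 96-well plates, cells were treated for 48 hours with each compound at five concentrations. Insufficient inhibition: endpoint recorded as highest concentration tested. Here, GI50 denotes the concentration required for 50% inhibition of growth. At the TGI there is no net growth.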

Columns and labels:
Assay in all cases: inhibition of tumour cell growth, NCI panel, 48 h
[1] = tested on: 786-0 renal
[2] = tested on: HCT-15 colon
[3] = tested on: KM12 colon
[4] = tested on: M14 melanoma
[5] = tested on: NCI-H23 lung
[6] = tested on: SNB-19 CNS
[7] = tested on: SNB-75 CNS
[8] = tested on: T-47D breast
[9] = tested on: RPMI-8226 leukemia
[10] = tested on: SR leukemia

SMILES | TGI [1] [µM] | TGI [2] [µM] | TGI [3] [µM] | TGI [4] [µM] | TGI [5] [µM] | TGI [6] [µM] | TGI [7] [µM] | TGI [8] [µM] | TGI [9] [µM] | TGI [10] [µM] | GI50 [7] [µM]
COC(=O)c1ccccc1CC1Cc2cccc(C)c2C1=O (stereo unspecified) | > 100 | 73.3 | 66.6 | > 100 | > 100 | > 100 | 86.8 | 82.7 |  |  | 
OC(C#CCN1CCCC1)(c1ccccc1)c1ccccc1Cl (stereo unspecified) |  | > 100 | > 100 |  | > 100 |  | > 100 | > 100 | > 100 | > 100 | 
O=C(NCCCl)O/N=C/c1cccnc1 |  | > 100 | > 100 |  | > 100 | > 100 | > 100 |  | > 100 |  | > 100
C=C1C(=O)[C@@]23CC[C@@H]4[C@@]5(C)CCC[C@@]4(OC5=O)[C@@]2(C)CC[C@@H]1C3 | 2.55 | 2.44 | 10.2 |  | 4.49 | 9.08 | 13.1 | 57.9 |  | > 100 | 
C=C(C)CNCCN | > 100 | > 100 | > 100 | > 100 | > 100 | > 100 |  | > 100 |  | > 100 | 
CC1=C(C#N)c2nc3ccccc3n2C(=O)C1(C)CCO (stereo unspecified) | > 100 | > 100 |  | > 100 | > 100 | > 100 | > 100 |  |  | > 100 | 
[N-]=[N+]=CC(=O)OC(CCl)CCl | > 100 | > 100 | > 100 |  | > 100 | > 100 |  |  | > 100 | > 100 | 
COc1ccc2oc(=N)c(C(=O)Nc3ccccc3)cc2c1 |  | > 100 | > 100 | > 100 | 51.8 | > 100 | 28 | > 100 | 83 | > 100 | 
CC1(C)C=CC(=O)C(O)C(C)(C)C1=O (stereo unspecified) | > 100 | > 100 | > 100 | > 100 | > 100 | > 100 | > 100 | > 100 | > 100 |  | 
CSc1csc(-c2ccc(-c3ccc(-c4cc(SC)cs4)s3)s2)c1 | > 100 | > 100 | > 100 | > 100 | > 100 | > 100 | > 100 |  | > 100 | > 100 | 
C/C1=C\[C@H](C)C[C@H](C)OC(=O)[C@H](C)NC(=O)[C@@H](Cc2ccc(O)c(Br)c2)N(C)C(=O)[C@H](C)NC(=O)[C@@H](C)C1 |  | > 25 | > 25 | > 25 | > 25 | 9.32 | 0.0904 | > 25 | 0.604 |  | 
COc1ccc(-c2nc3ccccc3c(=S)n2OC(C)=O)cc1 | > 25 | > 25 | > 25 | > 25 | > 25 | > 25 | > 25 | > 25 | > 25 |  | 
